In patent US8697689B2, “Indole and benzomorpholine derivatives as modulators of metabotropic glutamate receptors” (Janssen Pharmaceuticals, Inc., priority 2008, dated 2014):

Assays:
human mGluR2 receptor = target: T1, human mGluR2 receptor (Homo sapiens, UniProt Q14416); experiment: [35S]GTPγS binding assay (PAM assay) using membranes from CHO cells transfected with the human mGluR2 receptor; assay type: biochemical; conditions: in presence of mGluR2 agonist glutamate at a predetermined EC25 concentration; averages of duplicate values of 11-concentration response curves; error about 0.3 log-units; read-out: GTPgS-hR2 PAM pEC50 (converted)
T1 construct: expressed in transfected cells; host or cells: CHO cells
Description: The compounds provided in the present invention are positive allosteric modulators of mGluR2. These compounds appear to potentiate glutamate responses by binding to an allosteric site other than the glutamate binding site. The response of mGluR2 to a concentration of glutamate is increased when compounds of Formula (I) are present. Compounds of Formula (I) are expected to have their effect substantially at mGluR2 by virtue of their ability to enhance the function of the receptor. The behaviour of positive allosteric modulators tested at mGluR2 using the [^35S]GTPγS binding assay method described below and which is suitable for the identification of such compounds, and more particularly the compounds according to Formula (I), are shown in Table 4.
The [^35S]GTPγS binding assay is a functional membrane-based assay used to study G-protein coupled receptor (GPCR) function whereby incorporation of a non-hydrolysable form of GTP, [^35S]GTPγS (guanosine 5′-triphosphate, labelled with […] ^35S), is measured. The G-protein α subunit catalyzes the exchange of guanosine 5′-diphosphate (GDP) by guanosine triphosphate (GTP) and on activation of the GPCR by an agonist, [^35S]GTPγS, becomes incorporated and cannot be cleaved to continue the exchange cycle (Harper (1998) Current Protocols in Pharmacology 2.6.1-10, John Wiley & Sons, Inc.). […] Here we describe the use of the [^35S]GTPγS binding assay using membranes from cells transfected with the human mGluR2 receptor and adapted from Schaffhauser et al ((2003) Molecular Pharmacology 4:798-810) for the detection of the positive allosteric modulation (PAM) properties of the compounds of this invention.
CHO-cells were cultured to pre-confluence and stimulated with 5 mM butyrate for 24 hours, prior to washing in PBS (phosphate-buffered saline), and then collection by scraping in homogenisation buffer (50 mM Tris-HCl buffer, pH 7.4, 4° C.). Cell lysates were homogenized briefly (15 s) using an ultra-turrax homogenizer. The homogenate was centrifuged at 23 500×g for 10 min. and the supernatant discarded. The pellet was resuspended in 5 mM Tris-HCl, pH 7.4 and centrifuged again (30 000×g, 20 min., 4° C.). The final pellet was resuspended in 50 mM HEPES, pH 7.4 and stored at −80° C. in appropriate aliquots before use. Protein concentration was determined by the Bradford method (Bio-Rad, USA) with bovine serum albumin as standard.
Measurement of mGluR2 positive allosteric modulatory activity of test compounds in membranes containing human mGluR2 was performed using frozen membranes that were thawed and briefly homogenised prior to pre-incubation in 96-well microplates (15 μg/assay well, 30 minutes, 30° C.) in assay buffer (50 mM HEPES pH 7.4, 100 mM NaCl, 3 mM MgCl2, 50 μM GDP, 10 μg/ml saponin) with increasing concentrations of positive allosteric modulator (from 0.3 nM to 50 μM) and either a minimal pre-determined concentration of glutamate (PAM assay), or no added glutamate. For the PAM assay, membranes were pre-incubated with glutamate at EC25 concentration, i.e. a concentration that gives 25% of the maximal response glutamate, and is in accordance to published data (Pin et al. (1999) Eur. J. Pharmacol. 375:277-294). After addition of [^35S]GTPγS (0.1 nM, f.c.) to achieve a total reaction volume of 200 μl, microplates were shaken briefly and further incubated to allow [^35S]GTPγS incorporation on activation (30 minutes, 30° C.). The reaction was stopped by rapid vacuum filtration over glass-fibre filter plates (Unifilter 96-well GF/B filter plates, Perkin-Elmer, Downers Grove, USA) microplate using a 96-well plate cell harvester (Filtermate, Perkin-Elmer, USA), and then by washing three times with 300 μl of ice-cold wash buffer (Na2PO4.2H2O 10 mM, NaH2PO4.H2O 10 mM, pH=7.4). […]

T1 sequence (Q14416 19-872): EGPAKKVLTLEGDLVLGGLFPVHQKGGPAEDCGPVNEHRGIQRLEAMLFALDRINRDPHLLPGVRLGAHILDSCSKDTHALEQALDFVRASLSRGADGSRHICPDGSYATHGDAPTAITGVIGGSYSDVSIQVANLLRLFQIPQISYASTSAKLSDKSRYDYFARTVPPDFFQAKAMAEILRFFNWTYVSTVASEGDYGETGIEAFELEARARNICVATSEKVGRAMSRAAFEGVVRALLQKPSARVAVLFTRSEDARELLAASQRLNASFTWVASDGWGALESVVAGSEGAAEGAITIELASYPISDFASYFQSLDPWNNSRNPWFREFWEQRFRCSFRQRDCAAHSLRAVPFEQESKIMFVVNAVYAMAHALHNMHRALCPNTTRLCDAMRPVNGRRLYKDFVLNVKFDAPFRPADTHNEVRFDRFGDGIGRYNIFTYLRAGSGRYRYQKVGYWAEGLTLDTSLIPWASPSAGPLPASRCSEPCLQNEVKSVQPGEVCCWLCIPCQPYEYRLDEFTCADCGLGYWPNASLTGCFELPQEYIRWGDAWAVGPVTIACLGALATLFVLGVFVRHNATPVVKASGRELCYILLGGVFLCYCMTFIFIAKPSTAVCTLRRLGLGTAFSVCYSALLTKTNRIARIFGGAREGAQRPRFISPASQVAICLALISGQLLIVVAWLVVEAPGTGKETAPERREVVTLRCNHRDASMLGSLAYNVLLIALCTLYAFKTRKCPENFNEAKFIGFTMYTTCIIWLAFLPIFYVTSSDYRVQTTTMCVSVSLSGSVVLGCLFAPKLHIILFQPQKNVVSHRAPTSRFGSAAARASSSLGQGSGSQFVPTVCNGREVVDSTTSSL

Work on `CC(C)CCn1ccc(-c2ccc3c(ccn3[C@H]3CC[C@H](O)CC3)c2)c(Cl)c1=O` [Compound 7, trans-3-Chloro-4-[1-(4-hydroxy-cyclohexyl)-1H-indol-5-yl]-1-(3-methyl-butyl)-1H-pyridin-2-one] yielded an EC50 (human mGluR2 receptor) of 0.0891 µM and a melting point of 182.3 °C.

`CCCCn1ccc(-c2ccc3c(ccn3C3CCOCC3)c2)c(Cl)c1=O` [Compound 9, 1-Butyl-3-chloro-4-[1-(tetrahydro-pyran-4-yl)-1H-indol-5-yl]-1H-pyridin-2-one] showed an EC50 (human mGluR2 receptor) of 0.309 µM.

For `CCCCn1ccc(-c2ccc3c(ccn3[C@H]3CC[C@@H](O)CC3)c2)c(Cl)c1=O` [Compound 4, cis-1-Butyl-3-chloro-4-[1-(4-hydroxy-cyclohexyl)-1H-indol-5-yl]-1H-pyridin-2-one], the EC50 (human mGluR2 receptor) was 0.148 µM.

`CCCCn1ccc(-c2ccc3c(c2)OCCN3C2CCOCC2)c(Cl)c1=O` [Compound 1, 1-Butyl-3-chloro-4-[4-(tetrahydro-pyran-4-yl)-3,4-dihydro-2H-benzo[1,4]oxazin-7-yl]-1H-pyridin-2-one] gave an EC50 (human mGluR2 receptor) of 0.589 µM.

Molecule `O=c1c(Cl)c(-c2ccc3c(ccn3[C@H]3CC[C@H](O)CC3)c2)ccn1CC1CC1` [Compound 8, trans-3-Chloro-1-cyclopropylmethyl-4-[1-(4-hydroxy-cyclohexyl)-1H-indol-5-yl]-1H-pyridin-2-one] has an EC50 (human mGluR2 receptor) of 0.302 µM and a melting point of 209.4 °C.

`CCCCn1ccc(-c2ccc3c(ccn3[C@H]3CC[C@H](O)CC3)c2)c(Cl)c1=O` [Compound 3, trans-1-Butyl-3-chloro-4-[1-(4-hydroxy-cyclohexyl)-1H-indol-5-yl]-1H-pyridin-2-one] showed an EC50 (human mGluR2 receptor) of 0.102 µM.

Molecule `CCCCn1ccc(-c2ccc3c(ccn3[C@H]3CC[C@](C)(O)CC3)c2)c(Cl)c1=O` [Compound 5, trans-1-Butyl-3-chloro-4-[1-(4-hydroxy-4-methyl-cyclohexyl)-1H-indol-5-yl]-1H-pyridin-2-one] has an EC50 (human mGluR2 receptor) of 0.0759 µM.

`CCCCn1ccc(-c2ccc3c(ccn3[C@H]3CC[C@@](C)(O)CC3)c2)c(Cl)c1=O` [Compound 6, cis-1-Butyl-3-chloro-4-[1-(4-hydroxy-4-methyl-cyclohexyl)-1H-indol-5-yl]-1H-pyridin-2-one] gave an EC50 (human mGluR2 receptor) of 0.302 µM.
